In patent US20240254138A1, “TRICYCLIC PYRIMIDINES AS CYCLIN-DEPENDENT KINASE 7 (CDK7) INHIBITORS” (JANSSEN PHARMACEUTICA NV, priority 2021, published 2024):
Where two headings read alike, the source gives them in different places.

How the values were obtained:
[1] = test system: RNA Polymerase II Serine 5 phosphorylation (Rpb1 CTD, downstream substrate of CDK7) in A549 cells; assay: Imaging-based cellular RNA PolII Ser5 phosphorylation assay in A549 cells; format: cell-based, human; details: wild-type CDK7, RNA PolII Ser5 phosphorylation, averaged over all measurements; for IC50: Homo sapiens, A549, A549 cells, read-out: CDK7_A549 Wild-type CDK7 (pIC50) (converted); for CDK7_A549 Wild-type CDK7 (pIC50): A549 cells
Outline: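 A549 cells, seeded 1000/well in DMEM with 1% FBS and cultured 20 h, were treated with compound for 3 h at 37 °C. Ser5-phospho-Rpb1 CTD detected by immunofluorescence imaging after fixation and methanol permeabilization; IC50 from curve fit normalized to DMSO and 10 μM reference-compound controls.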

[2] = test system: RNA Polymerase II Serine 5 phosphorylation in A549 cells overexpressing CDK7-mutant (C312S); assay: Imaging-based cellular RNA PolII Ser5 phosphorylation assay in A549 cells overexpressing CDK7-mutant (C312S); format: cell-based, human; details: RNA PolII Ser5 phosphorylation, averaged over all measurements; for IC50: Homo sapiens, A549, A549 cells overexpressing CDK7-mutant (C312S), read-out: CDK7_A549 mutant hCDK7(pIC50) (converted); for CDK7_A549 mutant hCDK7(pIC50): A549 cells overexpressing CDK7-mutant (C312S)
Outline: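 A549 cells overexpressing CDK7 C312S (with endogenous wild-type CDK7) were treated with compound for 3 h at 37 °C in 1% FBS medium. Phospho-Rpb1 CTD Ser5 was immunostained after fixation and imaged. IC50 came from curve fit of % control, normalised to DMSO and 10 μM reference-compound controls.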

[3] = biological target: CDK7/cyclinH/MAT1 trimeric complex (Homo sapiens, UniProt P50613); assay: In vitro CDK7 assay, potency of irreversible covalent inhibitors (kinact/KI), coupled PK/LDH ADP readout at 340 nm
[4] = CDK7 (KI(μM)), […], 1 mM ATP, room temperature, averaged values over all measurements
[5] = read-out: CDK7 (kinact, s^−1), kinact = maximal rate of inactivation, 1 mM ATP, room temperature, averaged values over all measurements
[6] = read-out: CDK7 (kinact/KI, M^−1*s^−1), potency of irreversible covalent inhibitors, 1 mM ATP, room temperature, averaged values over all measurements
[7] = CDK7 (20 nM enz.) (KI, μM), 20 nM enzyme
[8] = read-out: CDK7 (20 nM enz.) (kinact, s^−1), 20 nM enzyme
[9] = read-out: CDK7 (20 nM enz.) (kinact/KI, M^−1*s^−1), 20 nM enzyme
[10] = read-out: CDK7 (20 nM enz.) (kobs/[I], M^−1*s^−1), 20 nM enzyme

Sequence of CDK7/cyclinH/MAT1 trimeric complex (P50613 whole entry): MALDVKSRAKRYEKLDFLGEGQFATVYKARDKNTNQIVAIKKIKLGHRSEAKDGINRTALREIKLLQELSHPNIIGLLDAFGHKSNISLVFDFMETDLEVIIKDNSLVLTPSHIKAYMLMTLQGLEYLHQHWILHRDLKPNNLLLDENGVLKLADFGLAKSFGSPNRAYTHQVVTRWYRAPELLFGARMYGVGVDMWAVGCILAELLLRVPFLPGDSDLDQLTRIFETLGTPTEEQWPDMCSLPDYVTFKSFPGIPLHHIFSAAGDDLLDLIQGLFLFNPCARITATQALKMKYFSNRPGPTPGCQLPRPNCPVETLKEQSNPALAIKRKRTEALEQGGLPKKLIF
Sequence of CDK7/cyclinH/MAT1 trimeric complex (P51946 whole entry partner): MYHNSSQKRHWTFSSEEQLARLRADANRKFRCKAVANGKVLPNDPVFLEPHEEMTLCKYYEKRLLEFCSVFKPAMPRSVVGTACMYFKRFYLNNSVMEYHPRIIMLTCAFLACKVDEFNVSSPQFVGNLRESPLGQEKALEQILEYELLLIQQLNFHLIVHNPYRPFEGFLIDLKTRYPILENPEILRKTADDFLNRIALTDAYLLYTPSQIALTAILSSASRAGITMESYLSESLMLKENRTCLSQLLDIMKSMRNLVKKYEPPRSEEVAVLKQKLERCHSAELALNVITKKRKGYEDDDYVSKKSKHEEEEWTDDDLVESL
Sequence of CDK7/cyclinH/MAT1 trimeric complex (P51948 whole entry partner): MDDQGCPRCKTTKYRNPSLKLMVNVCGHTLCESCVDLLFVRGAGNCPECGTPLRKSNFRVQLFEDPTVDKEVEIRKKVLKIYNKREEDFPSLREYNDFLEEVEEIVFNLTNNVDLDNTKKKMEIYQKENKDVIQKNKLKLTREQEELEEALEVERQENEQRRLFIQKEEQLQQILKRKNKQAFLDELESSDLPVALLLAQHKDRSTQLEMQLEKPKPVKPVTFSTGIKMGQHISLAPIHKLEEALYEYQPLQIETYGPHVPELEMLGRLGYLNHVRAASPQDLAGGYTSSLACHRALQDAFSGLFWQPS

C=CC(=O)N1CC(N2CCC(c3ccc4c(c3)OCc3c(N5CCOCC5)ccnc3N4)CC2)C1 [Compound 35]
IC50 [1]: 692 nM
IC50 [2]: > 10000 nM
melting point: 117.9 °C
Ki [3, 4]: 0.123 µM
kinact [3, 5]: 0.000133 s⁻¹
kinact/KI [3, 6]: 1090 M⁻¹ s⁻¹

C=CC(=O)Nc1ccc(C(=O)Nc2ccc3c(c2)Nc2nccc(C4CCOCC4)c2CO3)cc1 [Compound 1]
IC50 [1]: 132 nM
IC50 [2]: ~8510 nM
melting point: 281.1 °C
Ki [3, 7]: 0.0456 µM
Ki [3, 4]: 0.107 µM
kinact [3, 8]: 5.77e-05 s⁻¹
kinact/KI [3, 9]: 1270 M⁻¹ s⁻¹
kinact [3, 5]: 0.0003 s⁻¹
kinact/KI [3, 6]: 2030 M⁻¹ s⁻¹

C=CC(=O)N1CC(N2CCC(c3cc4c(c(C)n3)O[C@H](C)c3c(N5CCOCC5)ccnc3N4)CC2)C1 (single isomer, unassigned) [Compound 262]
IC50 [1]: 29.5 nM
IC50 [2]: > 10000 nM
melting point: 225 °C
Ki [3, 7]: 0.0323 µM
kinact [3, 8]: 3.71e-05 s⁻¹
kinact/KI [3, 9]: 1150 M⁻¹ s⁻¹

CC#CC(=O)N1CC(N2CCC(c3cc4c(c(C5CC5)n3)OCc3c(N5CCOCC5)ccnc3N4)CC2)C1 [Compound 403]
IC50 [1]: 155 nM
IC50 [2]: > 10000 nM
melting point: 174.8 °C
Ki [3, 7]: 0.0766 µM
kinact [3, 8]: 4.63e-05 s⁻¹
kinact/KI [3, 9]: 605 M⁻¹ s⁻¹

C=CC(=O)N1CC(N2CCC(c3cc4c(c(C)n3)O[C@@H](C)c3c(N5CCOCC5)ccnc3N4)CC2)C1 (single isomer, unassigned) [Compound 265]
IC50 [1]: 2090 nM
IC50 [2]: > 10000 nM
melting point: 288.5 °C

C=CC(=O)N1CC(N2CCC(c3ccc4c(c3)Nc3nccc(-c5cnn(C)c5)c3[C@H](C)O4)CC2)C1 (single isomer, unassigned) [Compound 128]
IC50 [1]: 4470 nM
IC50 [2]: > 10000 nM
melting point: 223.3 °C
Ki [3, 7]: 10.2 µM
kinact [3, 8]: 0.000115 s⁻¹
kinact/KI [3, 9]: 11.3 M⁻¹ s⁻¹

CC#CC(=O)N1CC(N2CCC(c3cc4c(c(-c5ncc[nH]5)n3)OCc3c(N5CCOCC5)ccnc3N4)CC2)C1 [Compound 369]
IC50 [1]: 245 nM
IC50 [2]: > 10000 nM
melting point: 229.2 °C
Ki [3, 7]: 0.0216 µM
kinact [3, 8]: 3e-05 s⁻¹
kinact/KI [3, 9]: 1390 M⁻¹ s⁻¹

C=CC(=O)N1CC(N2CC[C@H](c3cc4c(c(C)n3)O[C@@H](C)c3c(N5CCOCC5)ccnc3N4)C2)C1 (single isomer, unassigned) [Compound 218]
IC50 [1]: 8510 nM
IC50 [2]: > 10000 nM
melting point: > 300 °C
kinact/KI [3, 9]: 0.84 M⁻¹ s⁻¹

C=CC(=O)N1CC(N2CCC(c3cc4c(c(-c5ncc[nH]5)n3)OCc3c(N5CCOCC5)ccnc3N4)CC2)C1 [Compound 378]
IC50 [1]: 162 nM
IC50 [2]: > 3980 nM
melting point: 195.5 °C
kinact/KI [3, 10]: 1740 M⁻¹ s⁻¹

C=CC(=O)N1CC(N2CCC(c3cc4c(cn3)OCc3c(N5CCOCC5)ccnc3N4)CC2)C1 [Compound 83]
CDK7_A549 Wild-type CDK7 (pIC50) [1]: 6.95
CDK7_A549 mutant hCDK7(pIC50) [2]: <5
melting point: 238.4 °C
kinact/KI [3, 10]: 782 M⁻¹ s⁻¹

C=CC(=O)N1CC(N2CCC(c3cc4c(c(C)n3)OCc3c(-c5cnn(C)c5)ccnc3N4)CC2)C1 [Compound 164]
IC50 [1]: 55 nM
IC50 [2]: > 10000 nM
melting point: 277.8 °C
CDK7 (20 nM enz.) (kinact, s^−1) ([3]; 20 nM enzyme): 7.933e-05 s⁻¹
Ki [3, 7]: 0.0786 µM
kinact/KI [3, 9]: 1010 M⁻¹ s⁻¹

C=CC(=O)N1CC(N2CCC(c3cc4c(c(C)n3)OCc3c(N5CCOCC5)ccnc3N4)CC2)C1 [Compound 173]
IC50 [1]: 64.6 nM
CDK7_A549 mutant hCDK7(pIC50) [2]: <5.4
melting point: 236.9 °C
Ki [3, 7]: 0.0574 µM
kinact [3, 8]: 7.26e-05 s⁻¹
kinact/KI [3, 9]: 1260 M⁻¹ s⁻¹

CC#CC(=O)N1CC[C@H](N2CC(c3cc(C)c4c(c3)Nc3nccc(N5CCOCC5)c3[C@@H](C)O4)C2)C1 (single isomer, unassigned) [Compound 288]
IC50 [1]: 129 nM
IC50 [2]: 10000 nM
Ki [3, 7]: 0.0411 µM
kinact [3, 8]: 2.54e-05 s⁻¹
kinact/KI [3, 9]: 619 M⁻¹ s⁻¹

C=CC(=O)N1CC(N2CC(c3cc4c(c(C(F)(F)F)n3)OCc3c(N5CCOCC5)ccnc3N4)C2)C1 [Compound 315]
CDK7_A549 Wild-type CDK7 (pIC50) [1]: 7.25
CDK7_A549 mutant hCDK7(pIC50) [2]: 5.3
CDK7 (20 nM enz.) (kobs/[I], M^−1*s^−1) ([3]; 20 nM enzyme): 894.649 M⁻¹ s⁻¹

CC#CC(=O)N1CC[C@@H](N2CC(c3cc(C)c4c(c3)Nc3nccc(C5CCOCC5)c3CO4)C2)C1 (single isomer, unassigned) [Compound 296]
IC50 [1]: 224 nM
IC50 [2]: > 10000 nM
Ki [3, 7]: 0.067 µM
kinact [3, 8]: 3.52e-05 s⁻¹
kinact/KI [3, 9]: 526 M⁻¹ s⁻¹

C=CC(=O)N1CC(N2CCC(c3cc4c(c(C(N)=O)c3)OCc3c(C5CCOCC5)ccnc3N4)CC2)C1 [Compound 158]
IC50 [1]: 126 nM
IC50 [2]: > 3980 nM
Ki [3, 7]: 0.204 µM
kinact [3, 8]: 7.68e-05 s⁻¹
kinact/KI [3, 9]: 377 M⁻¹ s⁻¹

CC#CC(=O)N1CC(N2CCC(c3cc(C#N)c4c(c3)Nc3nccc(N5CCOCC5)c3C(C)O4)CC2)C1 (single isomer, unassigned) [Compound 443]
IC50 [1]: 20.4 nM
IC50 [2]: 4270 nM
kinact/KI [3, 10]: 1430 M⁻¹ s⁻¹

C=CC(=O)N1CC(N2CCC(c3ccc4c(c3)Nc3nccc(C5=CCOCC5)c3CO4)CC2)C1 [Compound 10]
IC50 [1]: 204 nM
IC50 [2]: > 10000 nM
Ki [3, 4]: 0.0555 µM
kinact [3, 5]: 0.000107 s⁻¹
kinact/KI [3, 6]: 1570 M⁻¹ s⁻¹

C=CC(=O)N1CCC(c2ccc(-c3ccc4c(c3)Nc3nccc(N5CCOCC5)c3CO4)cn2)C1 (centres unmarked) [Compound 25]
IC50 [1]: 891 nM
IC50 [2]: > 10000 nM
Ki [3, 4]: 0.0648 µM
kinact [3, 5]: 2.33e-05 s⁻¹
kinact/KI [3, 6]: 254 M⁻¹ s⁻¹

C=CC(=O)N1CC(N2CCC(c3cc(C#N)c4c(c3)Nc3nccc(N5CCOCC5)c3C(C)O4)CC2)C1 (centres unmarked) [Compound 342]
CDK7_A549 Wild-type CDK7 (pIC50) [1]: 7.85
CDK7_A549 mutant hCDK7(pIC50) [2]: 5.18
kinact/KI [3, 10]: 633 M⁻¹ s⁻¹

C=CC(=O)N1CC(N2CCC(c3cc(C)c4c(c3)Nc3nccc(N5CCOCC5)c3CO4)CC2)C1 [Compound 66]
CDK7_A549 Wild-type CDK7 (pIC50) [1]: 7.16
CDK7_A549 mutant hCDK7(pIC50) [2]: <5
kinact/KI [3, 10]: 1030 M⁻¹ s⁻¹

CC#CC(=O)N1CC(N2CCC(c3cc(C#N)c4c(c3)Nc3nccc(N5CCOCC5)c3[C@H](C)O4)CC2)C1 (single isomer, unassigned) [Compound 442]
IC50 [1]: 562 nM
IC50 [2]: > 10000 nM
Ki [3, 7]: 0.772 µM
kinact [3, 8]: 3.46e-05 s⁻¹
kinact/KI [3, 9]: 44.8 M⁻¹ s⁻¹

C=CC(=O)N1CC[C@H]2CN(c3ccc4c(c3)Nc3nccc(N5CCOCC5)c3CO4)CC[C@H]21 (relative stereo) [Compound 27]
IC50 [1]: 3720 nM
IC50 [2]: > 10000 nM
kinact/KI [3, 6]: 28.7 M⁻¹ s⁻¹

C=CC(=O)N1CC(N2CCC(c3ccc4c(c3)Nc3nccc(N5CCOC6(CC6)C5)c3CO4)CC2)C1 [Compound 77]
IC50 [1]: 182 nM
IC50 [2]: > 10000 nM
Ki [3, 7]: 0.0571 µM
kinact [3, 8]: 5.75e-05 s⁻¹
kinact/KI [3, 9]: 1010 M⁻¹ s⁻¹

C=CC(=O)N1CC(N2CCC(c3cc(C)c4c(c3)Nc3nccc(C5CCS(=O)(=O)CC5)c3CO4)CC2)C1 [Compound 133]
IC50 [1]: 166 nM
IC50 [2]: > 10000 nM
Ki [3, 7]: 0.0971 µM
kinact [3, 8]: 6.94e-05 s⁻¹
kinact/KI [3, 9]: 715 M⁻¹ s⁻¹

C=CC(=O)N1CC(N2CCC(c3cc4c(c(C)n3)O[C@@H](C)c3c(C5CCOCC5)ccnc3N4)CC2)C1 (single isomer, unassigned) [Compound 247]
IC50 [1]: 776 nM
IC50 [2]: > 3980 nM
Ki [3, 7]: 1.57 µM
kinact [3, 8]: 5.48e-05 s⁻¹
kinact/KI [3, 9]: 34.8 M⁻¹ s⁻¹

C=CC(=O)N1CC(N2CC(c3cc(F)c4c(c3)Nc3nccc(N5CCOCC5)c3CO4)C2)C1 [Compound 166]
IC50 [1]: 75.9 nM
IC50 [2]: > 10000 nM
Ki [3, 7]: 0.0262 µM
kinact [3, 8]: 5.16e-05 s⁻¹
kinact/KI [3, 9]: 1970 M⁻¹ s⁻¹

C=CC(=O)N1CC(N2CCO[C@H](c3cc(C)c4c(c3)Nc3nccc(C5CCOCC5)c3CO4)CC2)C1 (single isomer, unassigned) [Compound 219]
IC50 [1]: 200 nM
IC50 [2]: > 10000 nM
Ki [3, 7]: 0.311 µM
kinact [3, 8]: 6.39e-05 s⁻¹
kinact/KI [3, 9]: 206 M⁻¹ s⁻¹

Cc1nc(C2CCN(C3CN(C(=O)/C=C/C(=O)OC(C)C)C3)CC2)cc2c1OCc1c(-c3cnn(C)c3)ccnc1N2 [Compound 436]
IC50 [1]: 575 nM
IC50 [2]: > 10000 nM
Ki [3, 7]: 0.311 µM
kinact [3, 8]: 4.3e-05 s⁻¹
kinact/KI [3, 9]: 138 M⁻¹ s⁻¹

CC#CC(=O)N1CC(N2CCC(c3cc4c(c(C)n3)OCc3c(C5CCOCC5)ccnc3N4)CC2)C1 [Compound 410]
IC50 [1]: 174 nM
IC50 [2]: > 10000 nM
Ki [3, 7]: 0.203 µM
kinact [3, 8]: 6.11e-05 s⁻¹
kinact/KI [3, 9]: 300 M⁻¹ s⁻¹

C=CC(=O)N1CC(N2CCC(c3cc(Cl)c4c(c3)Nc3nccc(C5CCOCC5)c3CO4)CC2)C1 [Compound 101]
IC50 [1]: 64.6 nM
IC50 [2]: > 10000 nM
kinact/KI [3, 10]: 1110 M⁻¹ s⁻¹
